Reference: PubChem BioAssay (NCI)
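Exposure lasted 48 hours, with cells grown in 96-well plates and compounds tested at five concentrations. At the TGI there is no net growth.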 Starred links: 1 amine or outer side, 2 acyl side, 3 side chain; linkers in the order of their positions; H or OH if unused. Positions of bridges follow the written chain, without caps; N, C: chain ends. Non-standard residues stand in square brackets, D forms with d. Residues, ends and D or L forms follow the SMILES beside them. *: point of attachment. X3 = CC(C)C(C)C(C(=O)[*:2])N(C)[*:1]; Picolinoyl(3-OH) = O=C(c1ncccc1O)*; NMePhg = CN[CH](C(=O)O)c1ccccc1; Hyp = O=C(O)[CH]1C[CH](O)CN1; Sar = CNCC(=O)O

What was measured:
Assay in all cases: NCI tumour cell line growth inhibition, 48 h
OVCAR-4 ovarian = tested on: OVCAR-4 ovarian
SN12C renal = tested on: SN12C renal
A498 renal = tested on: A498 renal
HOP-62 NSCLC = tested on: HOP-62 NSCLC
SF-539 CNS = tested on: SF-539 CNS
A549 NSCLC = tested on: A549 NSCLC
ACHN renal = tested on: ACHN renal
DMS 273 small cell lung = tested on: DMS 273 small cell lung
RPMI-8226 leukemia = tested on: RPMI-8226 leukemia
RXF-631 renal = tested on: RXF-631 renal
NCI-H460 lung = tested on: NCI-H460 lung
XF 498 CNS = tested on: XF 498 CNS
NCI-H522 lung = tested on: NCI-H522 lung
UACC-62 melanoma = tested on: UACC-62 melanoma
SK-OV-3 ovarian = tested on: SK-OV-3 ovarian
COLO 205 colon = tested on: COLO 205 colon
SW-620 colon = tested on: SW-620 colon
HOP-18 NSCLC = tested on: HOP-18 NSCLC
SNB-19 CNS = tested on: SNB-19 CNS
HT29 colon = tested on: HT29 colon
NCI-H226 lung = tested on: NCI-H226 lung
OVCAR-5 ovarian = tested on: OVCAR-5 ovarian
786-0 renal = tested on: 786-0 renal
SK-MEL-5 melanoma = tested on: SK-MEL-5 melanoma
M14 melanoma = tested on: M14 melanoma
OVCAR-3 ovarian = tested on: OVCAR-3 ovarian
MALME-3M melanoma = tested on: MALME-3M melanoma
TK-10 renal = tested on: TK-10 renal
OVCAR-8 ovarian = tested on: OVCAR-8 ovarian
CCRF-CEM leukemia = tested on: CCRF-CEM leukemia
UACC-257 melanoma = tested on: UACC-257 melanoma
KM12 colon = tested on: KM12 colon
HCC-2998 colon = tested on: HCC-2998 colon
SF-268 CNS = tested on: SF-268 CNS
EKVX NSCLC = tested on: EKVX NSCLC
SF-295 CNS = tested on: SF-295 CNS
NCI-H23 lung = tested on: NCI-H23 lung
SNB-75 CNS = tested on: SNB-75 CNS
DMS 114 small cell lung = tested on: DMS 114 small cell lung
SNB-78 CNS = tested on: SNB-78 CNS
HOP-92 NSCLC = tested on: HOP-92 NSCLC
IGROV1 ovarian = tested on: IGROV1 ovarian
LXFL 529 NSCLC = tested on: LXFL 529 NSCLC
HCT-116 colon = tested on: HCT-116 colon
LOX IMVI melanoma = tested on: LOX IMVI melanoma
CAKI-1 renal = tested on: CAKI-1 renal
U251 CNS = tested on: U251 CNS
SK-MEL-28 melanoma = tested on: SK-MEL-28 melanoma
SR leukemia = tested on: SR leukemia
UO-31 renal = tested on: UO-31 renal
M19-MEL melanoma = tested on: M19-MEL melanoma
SK-MEL-2 melanoma = tested on: SK-MEL-2 melanoma
MOLT-4 leukemia = tested on: MOLT-4 leukemia
K-562 leukemia = tested on: K-562 leukemia
DLD-1 colon = tested on: DLD-1 colon
P388/ADR leukemia = tested on: P388/ADR leukemia
KM20L2 colon = tested on: KM20L2 colon
SN12K1 renal = tested on: SN12K1 renal

## Cn1cnnc1Sc1c([N+](=O)[O-])nc(-c2ccc([N+](=O)[O-])cc2)n1C
OVCAR-4 ovarian
  TGI: 29.5 µM
SN12C renal
  TGI: 29.6 µM
A498 renal
  TGI: > 100 µM
HOP-62 NSCLC
  TGI: > 100 µM
SF-539 CNS
  TGI: 33.2 µM
A549 NSCLC
  TGI: > 100 µM
ACHN renal
  TGI: 33.7 µM
DMS 273 small cell lung
  TGI: 31.8 µM
RPMI-8226 leukemia
  TGI: 37.8 µM
RXF-631 renal
  TGI: 32.8 µM
NCI-H460 lung
  TGI: > 100 µM
XF 498 CNS
  TGI: 22.5 µM
NCI-H522 lung
  TGI: 19.7 µM
UACC-62 melanoma
  TGI: 30.4 µM
SK-OV-3 ovarian
  TGI: > 100 µM
COLO 205 colon
  TGI: 28.3 µM
SW-620 colon
  TGI: 31.3 µM
HOP-18 NSCLC
  TGI: 31.3 µM
SNB-19 CNS
  TGI: > 100 µM
HT29 colon
  TGI: 34.3 µM
NCI-H226 lung
  TGI: 89.9 µM
OVCAR-5 ovarian
  TGI: 52 µM
786-0 renal
  TGI: 31.8 µM
SK-MEL-5 melanoma
  TGI: 30.8 µM
M14 melanoma
  TGI: 30.6 µM
OVCAR-3 ovarian
  TGI: 30.8 µM
MALME-3M melanoma
  TGI: 29.5 µM
TK-10 renal
  TGI: 32.9 µM
OVCAR-8 ovarian
  TGI: 33 µM
CCRF-CEM leukemia
  TGI: 33.7 µM
UACC-257 melanoma
  TGI: 29.5 µM
KM12 colon
  TGI: 41.2 µM
HCC-2998 colon
  TGI: 31.8 µM
SF-268 CNS
  TGI: 32.5 µM
EKVX NSCLC
  TGI: 76.1 µM
SF-295 CNS
  TGI: > 100 µM
NCI-H23 lung
  TGI: 32.4 µM
SNB-75 CNS
  TGI: 87.5 µM
DMS 114 small cell lung
  TGI: 32.4 µM
SNB-78 CNS
  TGI: 35.6 µM
HOP-92 NSCLC
  TGI: 34.9 µM
IGROV1 ovarian
  TGI: 33.4 µM
LXFL 529 NSCLC
  TGI: 26.8 µM
HCT-116 colon
  TGI: 28.4 µM
LOX IMVI melanoma
  TGI: 26.8 µM
CAKI-1 renal
  TGI: > 100 µM
U251 CNS
  TGI: 30.2 µM
SK-MEL-28 melanoma
  TGI: 29.6 µM
SR leukemia
  TGI: 35.5 µM
UO-31 renal
  TGI: 28 µM
M19-MEL melanoma
  TGI: 32.3 µM
SK-MEL-2 melanoma
  TGI: 29.8 µM
MOLT-4 leukemia
  TGI: 31.8 µM
K-562 leukemia
  TGI: 53.2 µM
DLD-1 colon
  TGI: 29.3 µM

## CC(C)CC1NC(=O)C(NC(=O)c2ncccc2O)C(C)OC(=O)C(c2ccccc2)N(C)C(=O)C(C)NC(=O)C(C(C)C(C)C)N(C)C(=O)CN(C)C(=O)C2CC(O)CN2C1=O (centres undefined) ({Picolinoyl(3-OH)}-TL[Hyp][Sar][X3]A[NMePhg]; ester 1-C; configuration not given here)
DMS 273 small cell lung
  TGI: > 125 µM
XF 498 CNS
  TGI: > 120 µM
HOP-18 NSCLC
  TGI: > 125 µM
P388/ADR leukemia
  TGI: > 125 µM
NCI-H226 lung
  TGI: > 125 µM
KM20L2 colon
  TGI: > 12.5 µM
UACC-257 melanoma
  TGI: > 125 µM
NCI-H23 lung
  TGI: > 125 µM
DMS 114 small cell lung
  TGI: > 125 µM
SNB-78 CNS
  TGI: > 125 µM
HOP-92 NSCLC
  TGI: > 125 µM
M19-MEL melanoma
  TGI: > 125 µM
SN12K1 renal
  TGI: > 125 µM
DLD-1 colon
  TGI: > 125 µM
